Assay results published in patent publication US20050053591A1, “Compositions and uses of motor protein-binding moieties” (Insert Therapeutics, Inc., priority 2002, published 2005).

What was measured:
[1] = target: FKBPs with a single amino acid substitution, Phe36Val (FV) (Homo sapiens, UniProt P62942, F37V); settings: FKBP Phe36Val (FV); cited from earlier work
wild-type FKBP = wild-type FKBP (Homo sapiens, UniProt P62942); settings: wild-type FKBP versus FV; cited from earlier work
DLC8 = DLC8 (Homo sapiens, UniProt P63167); settings: nine-residue peptide from the Bim protein (Lo et al.); cited from earlier work
Chain of DLC8 (P63167 whole entry, species assumed): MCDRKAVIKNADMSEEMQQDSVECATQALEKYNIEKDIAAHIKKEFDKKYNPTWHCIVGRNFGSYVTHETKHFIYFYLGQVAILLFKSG

PC3 cells = assay: Dynein-mediated transport to the nuclear surface in cultured cells (fluorescence microscopy, FIG. 1); type: cell-based; settings: rhodamine-labeled GFP plasmid conjugated to peptide, formulated with CD-IPEI at 5+/-, 1 μg plasmid, 5 hours exposure
Procedure: PC3 cells were plated at 100,000 cells/mL in 6-well plates containing a clean glass coverslip at the bottom of each well one day before transfection. For transfection, 1 μg of plasmid was mixed with a linear, cyclodextrin polycation (CD-IPEI) at 5+/− and mixed with cells in 1 mL of Opti-MEM. Transfection solution was removed 5 hours after exposure and replaced with complete media. Cells were washed with PBS, fixed with formalin (0.5 mL for 10 minutes), and washed 3 times with PBS. The coverslips were then removed from the wells and mounted on glass slides with Prolong Antifade (Molecular Probes, Eugene, Oreg.).

Chain of wild-type FKBP (P62942 whole entry): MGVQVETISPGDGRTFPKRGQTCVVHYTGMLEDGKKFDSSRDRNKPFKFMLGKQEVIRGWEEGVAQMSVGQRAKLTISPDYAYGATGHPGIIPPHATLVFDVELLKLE
Chain of FKBPs with a single amino acid substitution, Phe36Val (FV) (P62942 whole entry F37V): as the sequence (P62942 whole entry) above, with F37V counted along it

| Molecule | binding affinity [1] | lower affinity to the wild-type protein relative to Phe36Val FKBP (wild-type FKBP) [fold] | DLC8 binding (DLC8) | transport of plasmid DNA toward the nucleus (PC3 cells) |
| --- | --- | --- | --- | --- |
| CC[C@H](C(=O)N1CCCC[C@H]1C(=O)O[C@H](CCc1ccc(OC)c(OC)c1)c1cccc(OCC(=O)NCCNC(=O)COc2cccc([C@@H](CCc3ccc(OC)c(OC)c3)OC(=O)[C@@H]3CCCCN3C(=O)[C@@H](CC)c3cc(OC)c(OC)c(OC)c3)c2)c1)c1cc(OC)c(OC)c(OC)c1 [AP1903] | subnanomolar | 1000 |  |  |
| MSCDKSTQT [nine-peptide from the Bim protein] |  |  | can bind DLC8 |  |
| CC[C@H](C(=O)N1CCCC[C@H]1C(=O)O[C@H](CCc1ccc(OC)c(OC)c1)c1cccc(OCC(=O)NCC(CNC(=O)COc2cccc([C@@H](CCc3ccc(OC)c(OC)c3)OC(=O)[C@@H]3CCCCN3C(=O)[C@@H](CC)c3cc(OC)c(OC)c(OC)c3)c2)CN(C)C)c1)c1cc(OC)c(OC)c(OC)c1 [AP20187] | subnanomolar | 1000 |  |  |
| CSYSKETQPL [dynein-binding peptide] |  |  |  | facilitates transport toward the nucleus |
